Laboratory results reported in the kinase profiling compilation of Christmann-Franck et al. (2016).

Key:
Experiment in all cases: KINOMEscan competition binding
Conditions in all cases: compound 10.0 µM
CAMK2G (human) = CAMK2G (human) (UniProt Q13555)
CSNK2A2 (human) = CSNK2A2 (human) (UniProt P19784)
CDK19 (human) = CDK19 (human) (UniProt Q9BWU1)
PIK3CB (human) = PIK3CB (human) (UniProt P42338)
ROCK2 (human) = ROCK2 (human) (UniProt O75116)
PRKCD (human) = PRKCD (human) (UniProt Q05655)
BMPR2 (human) = BMPR2 (human) (UniProt Q13873)
PAK3 (human) = PAK3 (human) (UniProt O75914)
MAP2K3 (human) = MAP2K3 (human) (UniProt P46734)
AURKB (human) = AURKB (human) (UniProt Q96GD4)
SIK1 (human) = SIK1 (human) (UniProt P57059)
FLT3 (human) = FLT3 (human) (UniProt P36888)
Sequence of FLT3 (human) (P36888 whole entry, looked up): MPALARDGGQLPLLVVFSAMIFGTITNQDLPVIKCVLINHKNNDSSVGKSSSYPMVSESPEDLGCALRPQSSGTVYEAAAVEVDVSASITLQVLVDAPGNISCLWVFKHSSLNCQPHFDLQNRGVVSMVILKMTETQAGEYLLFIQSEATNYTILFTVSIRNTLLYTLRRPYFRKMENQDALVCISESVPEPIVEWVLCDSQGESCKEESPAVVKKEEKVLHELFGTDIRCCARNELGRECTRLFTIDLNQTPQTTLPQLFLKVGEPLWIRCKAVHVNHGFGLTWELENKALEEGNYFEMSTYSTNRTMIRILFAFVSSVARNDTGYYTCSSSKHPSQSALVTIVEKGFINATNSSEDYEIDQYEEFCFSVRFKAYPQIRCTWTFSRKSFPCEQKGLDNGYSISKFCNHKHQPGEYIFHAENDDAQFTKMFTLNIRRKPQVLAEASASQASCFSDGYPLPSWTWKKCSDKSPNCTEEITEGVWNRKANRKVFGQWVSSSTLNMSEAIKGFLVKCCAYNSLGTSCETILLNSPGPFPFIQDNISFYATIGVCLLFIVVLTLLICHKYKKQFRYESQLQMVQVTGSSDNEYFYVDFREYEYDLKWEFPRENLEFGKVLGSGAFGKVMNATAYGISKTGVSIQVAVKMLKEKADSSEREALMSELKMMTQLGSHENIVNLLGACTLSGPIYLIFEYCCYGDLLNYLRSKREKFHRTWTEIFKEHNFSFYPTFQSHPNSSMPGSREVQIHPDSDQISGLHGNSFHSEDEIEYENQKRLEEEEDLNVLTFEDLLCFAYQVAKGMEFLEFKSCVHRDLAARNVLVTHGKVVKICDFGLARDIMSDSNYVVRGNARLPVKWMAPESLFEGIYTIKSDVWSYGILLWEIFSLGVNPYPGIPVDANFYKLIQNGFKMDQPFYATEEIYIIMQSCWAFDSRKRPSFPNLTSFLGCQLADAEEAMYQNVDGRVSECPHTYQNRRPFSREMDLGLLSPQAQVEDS

INSRR (human) = INSRR (human) (UniProt P14616)
IKBKB (human) = IKBKB (human) (UniProt O14920)
DCLK1 (human) = DCLK1 (human) (UniProt O15075)
ROS1 (human) = ROS1 (human) (UniProt P08922)
PIM1 (human) = PIM1 (human) (UniProt P11309)
Sequence of PIM1 (human) (P11309 whole entry, looked up): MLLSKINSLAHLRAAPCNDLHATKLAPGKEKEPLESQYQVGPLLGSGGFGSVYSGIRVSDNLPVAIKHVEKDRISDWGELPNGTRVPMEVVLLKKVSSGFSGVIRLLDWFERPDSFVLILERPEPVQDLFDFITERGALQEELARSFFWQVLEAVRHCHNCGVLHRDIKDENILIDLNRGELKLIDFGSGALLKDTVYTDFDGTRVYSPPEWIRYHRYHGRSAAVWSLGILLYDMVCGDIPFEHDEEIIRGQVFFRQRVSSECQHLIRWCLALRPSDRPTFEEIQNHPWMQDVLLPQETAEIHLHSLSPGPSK

AKT2 (human) = AKT2 (human) (UniProt P31751)
NEK2 (human) = NEK2 (human) (UniProt P51955)
GSK3B (human) = GSK3B (human) (UniProt P49841)
PAK6 (human) = PAK6 (human) (UniProt Q9NQU5)
MUSK (human) = MUSK (human) (UniProt O15146)
Sequence of MUSK (human) (O15146 whole entry, looked up): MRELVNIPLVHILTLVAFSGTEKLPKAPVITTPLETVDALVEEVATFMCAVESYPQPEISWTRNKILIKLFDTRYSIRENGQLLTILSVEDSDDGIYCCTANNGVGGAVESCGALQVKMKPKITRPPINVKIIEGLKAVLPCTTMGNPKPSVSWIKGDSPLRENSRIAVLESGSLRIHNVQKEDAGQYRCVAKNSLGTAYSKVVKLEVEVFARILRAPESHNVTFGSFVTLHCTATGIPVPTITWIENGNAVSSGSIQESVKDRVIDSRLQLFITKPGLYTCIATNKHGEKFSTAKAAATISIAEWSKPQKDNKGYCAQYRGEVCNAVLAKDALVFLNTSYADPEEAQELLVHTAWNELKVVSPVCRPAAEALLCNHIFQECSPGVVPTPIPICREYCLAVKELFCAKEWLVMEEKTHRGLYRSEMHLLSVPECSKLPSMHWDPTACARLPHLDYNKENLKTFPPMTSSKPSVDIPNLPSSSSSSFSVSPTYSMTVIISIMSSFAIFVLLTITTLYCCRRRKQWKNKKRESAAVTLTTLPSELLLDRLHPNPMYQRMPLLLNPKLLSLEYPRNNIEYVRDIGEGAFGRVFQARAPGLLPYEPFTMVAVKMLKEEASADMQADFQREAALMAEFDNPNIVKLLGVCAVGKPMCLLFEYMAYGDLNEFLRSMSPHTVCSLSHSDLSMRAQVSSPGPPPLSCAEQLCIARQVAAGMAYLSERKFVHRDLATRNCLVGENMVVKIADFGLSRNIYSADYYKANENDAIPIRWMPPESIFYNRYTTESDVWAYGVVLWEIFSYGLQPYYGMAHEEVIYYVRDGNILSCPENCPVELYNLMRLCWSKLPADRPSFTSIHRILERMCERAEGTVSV

MAPKAPK5 (human) = MAPKAPK5 (human) (UniProt Q8IW41)
NTRK1 (human) = NTRK1 (human) (UniProt P04629)
Sequence of NTRK1 (human) (P04629 whole entry, looked up): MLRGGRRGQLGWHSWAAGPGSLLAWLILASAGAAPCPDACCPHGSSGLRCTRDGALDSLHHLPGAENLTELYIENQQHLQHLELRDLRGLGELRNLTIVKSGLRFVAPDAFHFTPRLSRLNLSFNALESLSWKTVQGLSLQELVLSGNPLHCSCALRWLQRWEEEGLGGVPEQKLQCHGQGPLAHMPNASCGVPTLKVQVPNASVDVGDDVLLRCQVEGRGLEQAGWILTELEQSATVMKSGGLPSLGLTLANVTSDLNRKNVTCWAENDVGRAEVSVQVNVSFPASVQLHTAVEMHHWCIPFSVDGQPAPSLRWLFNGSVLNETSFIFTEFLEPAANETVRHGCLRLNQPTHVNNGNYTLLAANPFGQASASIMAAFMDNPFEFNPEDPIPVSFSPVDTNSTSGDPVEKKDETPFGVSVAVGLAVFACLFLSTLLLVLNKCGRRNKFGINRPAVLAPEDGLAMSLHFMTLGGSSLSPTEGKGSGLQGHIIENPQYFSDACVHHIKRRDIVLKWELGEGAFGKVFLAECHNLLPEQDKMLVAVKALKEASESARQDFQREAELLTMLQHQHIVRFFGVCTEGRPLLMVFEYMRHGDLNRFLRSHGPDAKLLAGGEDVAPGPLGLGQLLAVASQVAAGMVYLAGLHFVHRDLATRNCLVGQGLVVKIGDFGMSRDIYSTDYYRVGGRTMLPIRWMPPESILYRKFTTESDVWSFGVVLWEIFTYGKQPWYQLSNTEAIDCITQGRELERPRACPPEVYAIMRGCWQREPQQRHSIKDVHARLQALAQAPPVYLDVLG

MARK3 (human) = MARK3 (human) (UniProt P27448)
PRKD1 (human) = PRKD1 (human) (UniProt Q15139)
ULK2 (human) = ULK2 (human) (UniProt Q8IYT8)
LTK (human) = LTK (human) (UniProt P29376)
MAPKAPK2 (human) = MAPKAPK2 (human) (UniProt P49137)
TAOK3 (human) = TAOK3 (human) (UniProt Q9H2K8)
KDR (human) = KDR (human) (UniProt P35968)
FRK (human) = FRK (human) (UniProt P42685)
Sequence of FRK (human) (P42685 whole entry, looked up): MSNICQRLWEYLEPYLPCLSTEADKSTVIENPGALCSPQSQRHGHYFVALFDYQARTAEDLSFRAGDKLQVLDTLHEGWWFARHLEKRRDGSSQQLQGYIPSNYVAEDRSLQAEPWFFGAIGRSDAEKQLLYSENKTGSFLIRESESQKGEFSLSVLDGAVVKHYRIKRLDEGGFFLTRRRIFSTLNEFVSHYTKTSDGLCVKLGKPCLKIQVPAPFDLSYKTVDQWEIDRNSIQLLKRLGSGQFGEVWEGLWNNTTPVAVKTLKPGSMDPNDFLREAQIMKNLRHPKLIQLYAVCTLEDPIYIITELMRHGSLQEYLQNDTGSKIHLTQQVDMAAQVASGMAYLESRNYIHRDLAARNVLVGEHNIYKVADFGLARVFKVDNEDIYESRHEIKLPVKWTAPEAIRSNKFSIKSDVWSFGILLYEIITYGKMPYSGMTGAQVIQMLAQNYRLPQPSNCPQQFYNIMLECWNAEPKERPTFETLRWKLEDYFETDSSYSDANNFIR

MYLK2 (human) = MYLK2 (human) (UniProt Q9H1R3)
MAPK4 (human) = MAPK4 (human) (UniProt P31152)
SRPK2 (human) = SRPK2 (human) (UniProt P78362)
MAPK1 (human) = MAPK1 (human) (UniProt P28482)
RIPK2 (human) = RIPK2 (human) (UniProt O43353)
Sequence of RIPK2 (human) (O43353 whole entry, looked up): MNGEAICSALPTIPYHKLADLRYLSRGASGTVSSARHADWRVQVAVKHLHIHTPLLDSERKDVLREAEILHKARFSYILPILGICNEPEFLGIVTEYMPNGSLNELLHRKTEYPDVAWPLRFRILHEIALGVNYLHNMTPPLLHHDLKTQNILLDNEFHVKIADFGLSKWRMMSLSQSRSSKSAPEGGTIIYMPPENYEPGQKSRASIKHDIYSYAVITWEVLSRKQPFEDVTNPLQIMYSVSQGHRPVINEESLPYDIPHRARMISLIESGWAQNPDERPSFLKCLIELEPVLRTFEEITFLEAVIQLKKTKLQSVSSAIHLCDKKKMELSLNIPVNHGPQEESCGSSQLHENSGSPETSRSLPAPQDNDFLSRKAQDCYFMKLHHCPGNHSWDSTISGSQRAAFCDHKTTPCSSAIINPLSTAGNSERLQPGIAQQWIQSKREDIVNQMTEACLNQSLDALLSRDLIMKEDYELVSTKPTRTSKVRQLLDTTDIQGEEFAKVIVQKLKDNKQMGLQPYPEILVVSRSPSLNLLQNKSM

PIM2 (human) = PIM2 (human) (UniProt Q9P1W9)
Sequence of PIM2 (human) (Q9P1W9 whole entry, looked up): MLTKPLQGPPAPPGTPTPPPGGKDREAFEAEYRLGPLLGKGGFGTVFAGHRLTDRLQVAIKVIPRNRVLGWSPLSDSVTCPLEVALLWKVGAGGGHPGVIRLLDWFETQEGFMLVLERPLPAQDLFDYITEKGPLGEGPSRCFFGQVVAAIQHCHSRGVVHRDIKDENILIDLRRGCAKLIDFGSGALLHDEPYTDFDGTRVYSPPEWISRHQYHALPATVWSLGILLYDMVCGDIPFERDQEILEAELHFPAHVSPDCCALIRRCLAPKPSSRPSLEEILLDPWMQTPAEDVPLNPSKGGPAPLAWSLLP

CSK (human) = CSK (human) (UniProt P41240)
TTK (human) = TTK (human) (UniProt P33981)
MKNK2 (human) = MKNK2 (human) (UniProt Q9HBH9)

Sequence of PRKCD (human) (Q05655 whole entry, looked up): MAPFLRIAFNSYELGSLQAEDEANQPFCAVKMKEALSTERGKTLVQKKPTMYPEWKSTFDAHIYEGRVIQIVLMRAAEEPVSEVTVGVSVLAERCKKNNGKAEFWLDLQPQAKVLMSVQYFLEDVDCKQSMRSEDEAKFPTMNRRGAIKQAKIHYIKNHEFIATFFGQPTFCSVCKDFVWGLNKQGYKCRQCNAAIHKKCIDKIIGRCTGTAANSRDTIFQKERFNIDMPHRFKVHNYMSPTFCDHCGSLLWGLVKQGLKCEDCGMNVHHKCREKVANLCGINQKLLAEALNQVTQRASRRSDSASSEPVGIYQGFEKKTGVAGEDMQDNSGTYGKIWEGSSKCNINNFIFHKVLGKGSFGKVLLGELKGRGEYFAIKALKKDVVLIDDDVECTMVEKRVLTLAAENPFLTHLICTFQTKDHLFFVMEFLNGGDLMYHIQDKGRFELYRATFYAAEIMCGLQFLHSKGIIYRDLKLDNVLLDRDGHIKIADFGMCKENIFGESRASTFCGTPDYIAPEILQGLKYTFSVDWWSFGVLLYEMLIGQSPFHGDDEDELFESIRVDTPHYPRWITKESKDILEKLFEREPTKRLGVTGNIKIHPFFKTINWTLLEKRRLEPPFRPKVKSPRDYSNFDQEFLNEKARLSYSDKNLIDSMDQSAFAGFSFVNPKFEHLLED

SMILES | kinase still bound, per cent of control (CAMK2G (human)) [%] | kinase still bound, per cent of control (CDK19 (human)) [%] | kinase still bound, per cent of control (PIK3CB (human)) [%] | kinase still bound, per cent of control (ROCK2 (human)) [%] | kinase still bound, per cent of control (PRKCD (human)) [%] | kinase still bound, per cent of control (BMPR2 (human)) [%] | kinase still bound, per cent of control (PAK3 (human)) [%] | kinase still bound, per cent of control (SIK1 (human)) [%] | kinase still bound, per cent of control (FLT3 (human)) [%] | kinase still bound, per cent of control (INSRR (human)) [%] | kinase still bound, per cent of control (IKBKB (human)) [%] | kinase still bound, per cent of control (ROS1 (human)) [%] | kinase still bound, per cent of control (PIM1 (human)) [%] | kinase still bound, per cent of control (AKT2 (human)) [%] | kinase still bound, per cent of control (NEK2 (human)) [%] | kinase still bound, per cent of control (PAK6 (human)) [%] | kinase still bound, per cent of control (MUSK (human)) [%] | kinase still bound, per cent of control (MAPKAPK5 (human)) [%] | kinase still bound, per cent of control (NTRK1 (human)) [%] | kinase still bound, per cent of control (PRKD1 (human)) [%] | also measured
Nc1ccc(-c2ccc3ncc4ccc(=O)n(-c5cccc(C(F)(F)F)c5)c4c3c2)cn1 | 95 | 100 | 6.6 | 81 | 88 | 100 | 100 | 79 | 12 | 100 | 89 | 82 | 92 | 100 | 100 | 100 | 100 | 100 | 57 | 87 | kinase still bound, per cent of control (CSNK2A2 (human)): 48%; kinase still bound, per cent of control (MAP2K3 (human)): 66%; kinase still bound, per cent of control (AURKB (human)): 89%; kinase still bound, per cent of control (DCLK1 (human)): 97%; kinase still bound, per cent of control (GSK3B (human)): 100%; kinase still bound, per cent of control (MARK3 (human)): 100%; kinase still bound, per cent of control (ULK2 (human)): 95%; kinase still bound, per cent of control (LTK (human)): 100%; kinase still bound, per cent of control (MAPKAPK2 (human)): 100%; kinase still bound, per cent of control (TAOK3 (human)): 80%; kinase still bound, per cent of control (KDR (human)): 100%; kinase still bound, per cent of control (FRK (human)): 100%; kinase still bound, per cent of control (MYLK2 (human)): 100%; kinase still bound, per cent of control (MAPK4 (human)): 75%; kinase still bound, per cent of control (SRPK2 (human)): 100%; kinase still bound, per cent of control (MAPK1 (human)): 100%; kinase still bound, per cent of control (RIPK2 (human)): 54%; kinase still bound, per cent of control (PIM2 (human)): 100%; kinase still bound, per cent of control (CSK (human)): 100%; kinase still bound, per cent of control (TTK (human)): 42%
CCOc1cc2ncc(C#N)c(Nc3ccc(OCc4ccccn4)c(Cl)c3)c2cc1NC(=O)/C=C/CN(C)C | 95 | 100 | 100 | 86 | 100 | 78 | 100 | 31 | 100 | 94 | 100 | 96 | 100 | 99 | 12 | 74 | 100 | 89 | 77 | 74 | kinase still bound, per cent of control (CSNK2A2 (human)): 72%; kinase still bound, per cent of control (MAP2K3 (human)): 100%; kinase still bound, per cent of control (AURKB (human)): 75%; kinase still bound, per cent of control (DCLK1 (human)): 100%; kinase still bound, per cent of control (ULK2 (human)): 100%; kinase still bound, per cent of control (LTK (human)): 100%; kinase still bound, per cent of control (MAPKAPK2 (human)): 89%; kinase still bound, per cent of control (TAOK3 (human)): 75%; kinase still bound, per cent of control (KDR (human)): 94%; kinase still bound, per cent of control (FRK (human)): 100%; kinase still bound, per cent of control (MYLK2 (human)): 79%; kinase still bound, per cent of control (MKNK2 (human)): 99%; kinase still bound, per cent of control (MAPK4 (human)): 100%; kinase still bound, per cent of control (SRPK2 (human)): 85%; kinase still bound, per cent of control (MAPK1 (human)): 100%; kinase still bound, per cent of control (RIPK2 (human)): 98%; kinase still bound, per cent of control (PIM2 (human)): 100%; kinase still bound, per cent of control (CSK (human)): 13%; kinase still bound, per cent of control (TTK (human)): 100%
CCCS(=O)(=O)Nc1ccc(F)c(C(=O)c2c[nH]c3ncc(-c4ccc(Cl)cc4)cc23)c1F | 95 | 0.8 | 100 | 77 | 100 | 57 | 69 | 2.8 | 2.4 | 73 | 100 | 100 | 95 | 76 | 71 | 74 | 99 | 100 | 90 | 8.2 | kinase still bound, per cent of control (CSNK2A2 (human)): 100%; kinase still bound, per cent of control (DCLK1 (human)): 88%; kinase still bound, per cent of control (GSK3B (human)): 100%; kinase still bound, per cent of control (MARK3 (human)): 61%; kinase still bound, per cent of control (ULK2 (human)): 100%; kinase still bound, per cent of control (LTK (human)): 100%; kinase still bound, per cent of control (MAPKAPK2 (human)): 100%; kinase still bound, per cent of control (TAOK3 (human)): 74%; kinase still bound, per cent of control (KDR (human)): 31%; kinase still bound, per cent of control (FRK (human)): 16%; kinase still bound, per cent of control (MYLK2 (human)): 18%; kinase still bound, per cent of control (MAPK4 (human)): 100%; kinase still bound, per cent of control (SRPK2 (human)): 100%; kinase still bound, per cent of control (MAPK1 (human)): 100%; kinase still bound, per cent of control (RIPK2 (human)): 4.3%; kinase still bound, per cent of control (PIM2 (human)): 96%; kinase still bound, per cent of control (CSK (human)): 7.4%; kinase still bound, per cent of control (TTK (human)): 57%
O=C(O)c1ccc(Nc2ncc3c(n2)-c2ccc(Cl)cc2C(c2c(F)cccc2F)=NC3)cc1 | 98 | 96 | 100 | 89 | 100 | 26 | 52 | 5.7 | 80 | 100 | 100 | 23 | 71 | 100 | 73 | 79 | 93 | 100 | 35 | 92 | kinase still bound, per cent of control (AURKB (human)): 0.3%; kinase still bound, per cent of control (MARK3 (human)): 100%; kinase still bound, per cent of control (ULK2 (human)): 100%; kinase still bound, per cent of control (LTK (human)): 62%; kinase still bound, per cent of control (MAPKAPK2 (human)): 100%; kinase still bound, per cent of control (TAOK3 (human)): 95%; kinase still bound, per cent of control (FRK (human)): 73%; kinase still bound, per cent of control (MYLK2 (human)): 100%; kinase still bound, per cent of control (MKNK2 (human)): 84%; kinase still bound, per cent of control (MAPK4 (human)): 66%; kinase still bound, per cent of control (SRPK2 (human)): 80%; kinase still bound, per cent of control (MAPK1 (human)): 100%; kinase still bound, per cent of control (RIPK2 (human)): 97%; kinase still bound, per cent of control (PIM2 (human)): 36%; kinase still bound, per cent of control (CSK (human)): 15%; kinase still bound, per cent of control (TTK (human)): 63%
